Experiments:
[1] = system: 5′-32P-end-labeled GRE2 duplex DNA; assay: Radical hydroxyl footprinting; format: binding; conditions: 60 minutes in the dark at 25° C., 60 seconds reaction
Protocol: The protocol for radical hydroxyl footprinting reactions was adapted from previously established methods, A. Revzin, Ed., Separation, Detection and Characterization of Biological Macromolecules (1993); P. E. Nielsen, J. Molec. Recog. 3:1-25 (1990). Reaction samples comprised of the TO-ZF and 5′^-32P-end-labeled GRE2 in 20 mM Tris (pH 7.9), 40 mM NaCl, 20 mM KCl, 1 mM MgCl2 were allowed to equilibrate in the dark at room temperature for 60 minutes. Equal volumes of a freshly prepared solution of 0.2 mM [Fe(EDTA)]^2− was mixed with a 0.3% H2O2 solution and a 10 mM sodium ascorbate solution and added to the reaction sample. After a one minute incubation, the reactions were quenched with an aqueous solution of 20 mM thiourea and 10 mg/ml tRNA. The footprinting reactions were analyzed on a 15% denaturing polyacrylamide gel.
Footprinting of TO-ZF Conjugate. DNA footprinting by the TO-ZF conjugate was performed to determine if the TO-ZF conjugate was binding the same sequence as the native glucocorticoid receptor protein DNA-binding domain. More specifically, reaction samples (Maxam-Gilbert A+G and C+T sequencing reactions, radical hydroxyl cleavage of GRE2 in the presence of TO-ZF, radical hydroxyl cleavage of GRE2 in the absence of TO-ZF) contained […] duplex DNA and […] TO-ZF, 20 mM Tris (pH 7.9), 40 mM NaCl, 20 mM KCl, 1 mM MgCl2. […]

GRE1 dsDNA = assay: Photocleavage at 514 nm, PAGE analysis; format: biochemical
Protocol: (§1) The purified DNA strands shown in FIG. 2 were 5′^-32P-end-labeled using T4 polynucleotide kinase and purified as described above. Oxygen removal was performed by bubbling argon through the samples. Irradiations were performed on […] samples in a 1.0 mL glass cuvette fit with a septum using an argon-ion laser at 514 nm with a power of 300 mW/cm^2. After irradiation, samples were divided in half and one portion treated with piperidine, the other immediately frozen. Piperidine treatment consisted of adding an equal volume of freshly prepared 20% piperidine in water to the sample followed by heating at 90° C. for 30 minutes. Both the treated and untreated fractions were dried under vacuum. To each dried sample was added […] of 80% formamide in water. The products of the photocleavage experiments were analyzed on a 15% polyacrylamide (19:1) vertical sequencing gel with dimensions 21 cm×40 cm×0.4 mm. […] Gels were dried and exposed to a phosphorimaging screen for 4 hours and analyzed on a Molecular Dynamics Storm-840 gel scanner in phosphorimaging mode.
(§2) Photocleavage of TO-ZF conjugate. […] After irradiation of TO-ZF bound to dsDNA in Tris buffer solution at 514 nm (514 nm is in the main band of the absorbance spectrum of intercalated thiazole orange as shown in FIG. 3), the photo-products were denatured and separated using denaturing polyacrylamide gel electrophoresis (PAGE). […]

GRE2 dsDNA = assay: Photocleavage at 514 nm, intensity dependence of guanine oxidation; format: biochemical; conditions: 160 nM duplex DNA, 200 nM TO-ZF, piperidine
Protocol: as §1, §2

With “TO-ZF: 29 amino acid single zinc finger from residues 438-465 of glucocorticoid receptor, thiazole orange coupled to a lysine ε-amine” the “region protected from radical hydroxyl cleavage” value [1] was “protects a four base pair region (TTCT) within the native GRE binding sequence”, the site of photocleavage (GRE1 dsDNA; 514 nm irradiation, piperidine treatment) was “piperidine dependent cleavage to occur predominantly at the guanine within the GRE” and the “total chemical yield of the piperidine dependent reactions” value (GRE1 dsDNA; samples reacted in the presence of oxygen) was 2%. For the same substance, the “preferential site of photocleavage” value (GRE2 dsDNA) was “Preferential cleavage is observed at the 5′-G of the GG sequence”.
